Source: article PMC11062899, “De novo development of small cyclic peptides that are orally bioavailable” (Nature Chemical Biology, 2023)
“And” between values parts separate entries of the source, which are not always exact repeats. Equal values may be shown once.

What was measured:
[1] = molecular target: T1, rat α-thrombin (Rattus norvegicus, UniProt P18292); assay: Protease inhibition, Ki for rat α-thrombin (fluorogenic substrate Z-Gly-Gly-Arg-AMC); assay type: biochemical; settings: replicates R1-R3
T1 construct: rat α-thrombin (Molecular Innovations) were used at final concentrations of 2 nM and 3 nM; purchased Molecular Innovations
In short: (§1)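 Ki values come from Cheng–Prusoff correction of IC50, itself fitted by four-parameter logistic regression of activity versus a no-peptide control. Assays used 2 nM human or 3 nM rat thrombin, 50 μM Z-Gly-Gly-Arg-AMC, 30 min kinetic fluorescence at 25 °C.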

[2] = molecular target: T2, porcine pepsin (Sus scrofa, UniProt P00791); assay: Peptide stability in simulated gastric fluid (SGF); assay type: in vitro ADME; settings: for SGF stability, Residual peptide Average / SGF stability, Residual peptide: after 8 h vs 0 h (TIC); for SGF stability, Residual peptide Average: average of R1-R3; for SGF stability, Residual peptide: single replicates R1-R3; for remaining at 8 h: simulated gi fluid, 37 °C, pH 1.2, read-out: Proteolytic stability: SGF (8 h) % remaining
T2 construct: 0.32 g of porcine pepsin (Sigma-Aldrich, P7125) was dissolved under gentle agitation; purchased Sigma-Aldrich P7125
T2 sequence (P00791 60-385): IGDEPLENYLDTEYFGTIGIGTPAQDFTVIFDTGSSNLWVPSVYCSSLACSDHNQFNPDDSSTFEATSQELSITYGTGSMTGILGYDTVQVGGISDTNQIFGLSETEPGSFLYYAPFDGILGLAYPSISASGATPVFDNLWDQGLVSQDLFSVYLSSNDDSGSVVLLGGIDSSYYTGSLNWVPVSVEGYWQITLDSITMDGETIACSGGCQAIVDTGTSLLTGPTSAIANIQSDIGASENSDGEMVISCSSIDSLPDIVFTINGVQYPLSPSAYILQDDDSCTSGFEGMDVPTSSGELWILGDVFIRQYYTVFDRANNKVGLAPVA
Method: (§2) Simulated gastric and intestinal fluids were prepared according to the States Pharmacopeia specifications (Test Solutions, United States Pharmacopeia 35, NF 30, 2012). SGF: 0.2 g of sodium chloride was dissolved in 50 ml of water, and the pH was adjusted to 1.2 by addition of 0.7 ml of 10 M hydrochloric acid. Then, 0.32 g of porcine pepsin (Sigma-Aldrich, P7125) was dissolved under gentle agitation, and the volume was filled up to 100 ml with Milli-Q water. SIF: 0.68 g of monobasic potassium phosphate was dissolved in 25 ml of Milli-Q water, and the pH was adjusted to 6.8 by adding 7.7 ml of a 0.2 M sodium hydroxide solution. Next, 1 g of porcine pancreatin (Sigma-Aldrich, P3292) was added under gentle agitation, and the volume was adjusted to 100 ml with Milli-Q water to afford a fine suspension. To test the stability in simulated gastrointestinal fluids, 396 μl of SGF or SIF was pre-heated at 37 °C for 10 min, and 4 μl of a 1 mM peptide solution in DMSO was added. […] Supernatant was analyzed by LC–MS to measure the peptide concentrations at the different timepoints. Residual peptide was calculated by normalizing the concentrations measured at T1 to T0.

[3] = Metabolic stability in rat liver microsomes (RLMs); settings: rat, microsomes
[4] = Peptide stability in simulated intestinal fluid (SIF); assay type: in vitro ADME, porcine; settings: simulated gi fluid; 8 h, 37 °C, pH 6.8; read-out: Proteolytic stability: SIF (8 h) % remaining
Method: as §2

[5] = system: porcine pancreatin; assay: as above; assay type: in vitro ADME; settings: after 8 h vs 0 h (TIC); for SIF stability, Residual peptide Average: average of R1-R3
Method: as §2

[6] = Passive artificial membrane permeability (PAMPA); settings: for PAMPA permeability: % permeability: 50 μM, 12–18 h, acceptor concentration relative to equilibrium; for Papp at 50 μM / Permeability% Average / Permeability% R1 / Permeability% R3: PAMPA; for Papp at 50 μM: pH 7.4; for Permeability% Average: average of R1-R3; for Permeability% R1: replicate R1; for Permeability% R1 / Permeability% R3: TIC of top well sample relative to sample at theoretical equilibrium; for Permeability% R3: replicate R3
Method: The plate system consisted of a 96-well microwell plate (donor wells) and a 96-well insert containing a PVDF membrane coated with tri-layers of phospholipids (acceptor wells). Permeability was measured from the bottom plate (donor wells) to the top insert (acceptor wells). Cyclic peptide or reference compound solutions were prepared at a concentration of 50 μM in PBS buffer (pH 7.4) containing 5% DMSO, and 300 μl of the resulting solutions was placed into the donor wells of the PAMPA plate. Acceptor wells were prepared by adding 200 μl of PBS buffer (pH 7.4) containing 5% DMSO. The insert was stacked onto the donor plate, and the system was covered with a lid to avoid evaporation. […] Additionally, 3:2 dilutions of the 50 μM cyclic peptide stocks were prepared in PBS buffer (pH 7.4) containing 5% DMSO to yield a sample corresponding to the theoretical equilibrium between donor and acceptor wells. The samples were run on the LC–MS to measure the cyclic peptide concentration representing maximum permeability. Permeability percent was calculated using equation (4) below.4 Permeability%=PeptideAcceptor/PeptideEquilibrated×100 where [PeptideAcceptor] represents the AUC measured on the LC–MS for the acceptor wells, and [PeptideEquilibrated] represents the AUC measured for the samples diluted to the theoretical equilibrium. Detection limit for the assay was typically at 1% permeability.
Papp values were calculated using equation (5).5 Papp=VD×VA/VD+VA×A×t×−ln1−PeptideAcceptor/PeptideEquilibrated where VD and VA are the volumes of donor and acceptor wells, respectively; A is the area of the membrane; and t is the incubation time.

[7] = molecular target: human α-thrombin (Homo sapiens, UniProt P00734); assay: Protease inhibition, Ki for human α-thrombin (fluorogenic substrate Z-Gly-Gly-Arg-AMC); assay type: biochemical; settings: replicates R1-R3
In short: as §1

[8] = peptide 1.33E+02 uM, slope of proteolytic substrate cleavage over time
[9] = CL (ul/min/mg protein) R1, RLM CL, replicate R1
[10] = CL (ul/min/mg protein) R2, RLM CL, replicate R2
[11] = CL (ul/min/mg protein) R3, RLM CL, replicate R3
[12] = Half Life (min) R2, RLM metabolic stability, replicate R2, 0-60 min
[13] = Half Life (min) R3, RLM metabolic stability, replicate R3, 0-60 min
[14] = Metabolic stability: Half life T1/2 (min), RLMs, mean and SD, three measurements
[15] = Metabolic stability: RLM CL (ul/min/mg), RLMs, mean and SD, three measurements

## C[C@@H]1NC(=O)[C@@H](NC(=O)c2ccc(Cl)s2)CSCc2cccc(n2)CSCCNC(=O)[C@H]2CCCN(C2)C1=O [compound 30]
[1]; [8]
  Rat alpha thrombin inhibition, slope normalized to DMSO: 3.2 and 3.1 and 10.4
[1]; peptide 1.67E+01 uM
  Rat alpha thrombin inhibition, slope normalized to DMSO: 16.1 and 15.2 and 20.3
[1]; peptide 2.08E+00 uM
  Rat alpha thrombin inhibition, slope normalized to DMSO: 58.5 and 59.8 and 48.9
[1]; peptide 3.33E+01 uM
  Rat alpha thrombin inhibition, slope normalized to DMSO: 8.9 (2×) and 15.3
[1]; peptide 4.17E+00 uM
  Rat alpha thrombin inhibition, slope normalized to DMSO: 40.8 and 42.9 and 35.9
[1]; peptide 6.67E+01 uM
  Rat alpha thrombin inhibition, slope normalized to DMSO: 5.0 and 4.9 and 12.1
[1]; peptide 8.33E+00 uM
  Rat alpha thrombin inhibition, slope normalized to DMSO: 24.7 and 27.2 and 32.3
[2]
  SGF stability, Residual peptide Average: 90.24
  SGF stability, Residual peptide: 101.78 and 81.27 and 87.66
  remaining at 8 h: 90 ± 10%
[3]; [9]
  microsomal CLint: 79.9 µL/min/mg
[3]; [10]
  microsomal CLint: 59.7 µL/min/mg
[3]; [11]
  microsomal CLint: 75.2 µL/min/mg
[3]; Half Life (min) R1, RLM metabolic stability, replicate R1, 0-60 min
  half-life: 17.3 min
[3]; [12]
  half-life: 23.2 min
[3]; [13]
  half-life: 18.4 min
[3]; [14]
  half-life: 19.7 ± 2.5 min
[3]; [15]
  microsomal CLint: 72 ± 9 µL/min/mg
[4]
  remaining at 8 h: 98 ± 11%
[5]
  SIF stability, Residual peptide Average: 97.68
[6]
  PAMPA permeability: % permeability: 27 ± 1%
  Papp at 50 μM: 2.14 ×10⁻⁶ cm/s
  Permeability% Average: 27.4%
  Permeability% R1: 28.09%
  Permeability% R3: 26.42%
[7]; peptide 1.02E-03 uM
  Human alpha thrombin inhibition, slope normalized to DMSO: 97.2 and 97.6 and 106.2
[7]; peptide 1.04E+00 uM
  Human alpha thrombin inhibition, slope normalized to DMSO: 103.4 and 89.3 and 97.4
[7]; peptide 1.27E-04 uM
  Human alpha thrombin inhibition, slope normalized to DMSO: 101.8 and 96.4 and 101.4
[7]; peptide 1.30E-01 uM
  Human alpha thrombin inhibition, slope normalized to DMSO: 98.9 and 98.3 and 91.7
[7]; [8]
  Human alpha thrombin inhibition, slope normalized to DMSO: 9.7 and 9.3 and 8.4
[7]; peptide 1.63E-02 uM
  Human alpha thrombin inhibition, slope normalized to DMSO: 113.9 and 97.8 and 107.6
[7]; peptide 1.67E+01 uM
  Human alpha thrombin inhibition, slope normalized to DMSO: 44.4 and 39.7 and 38.9
[7]; peptide 2.03E-03 uM
  Human alpha thrombin inhibition, slope normalized to DMSO: 93.3 and 95.3 and 103.2
[7]; peptide 2.08E+00 uM
  Human alpha thrombin inhibition, slope normalized to DMSO: 83.8 and 81.0 and 85.8
[7]; peptide 2.54E-04 uM
  Human alpha thrombin inhibition, slope normalized to DMSO: 101.0 and 97.7 and 100.6
[7]; peptide 2.60E-01 uM
  Human alpha thrombin inhibition, slope normalized to DMSO: 90.3 and 93.2 and 100.5
[7]; peptide 3.18E-05 uM
  Human alpha thrombin inhibition, slope normalized to DMSO: 99.8 (2×) and 101.6
[7]; peptide 3.26E-02 uM
  Human alpha thrombin inhibition, slope normalized to DMSO: 100.2 and 97.8 and 102.0
[7]; peptide 3.33E+01 uM
  Human alpha thrombin inhibition, slope normalized to DMSO: 26.4 and 25.5 and 27.5
[7]; peptide 4.07E-03 uM
  Human alpha thrombin inhibition, slope normalized to DMSO: 95.7 and 98.6 and 101.8
[7]; peptide 4.17E+00 uM
  Human alpha thrombin inhibition, slope normalized to DMSO: 69.5 and 72.8 and 72.6
[7]; peptide 5.09E-04 uM
  Human alpha thrombin inhibition, slope normalized to DMSO: 102.0 and 99.0 and 102.1
[7]; peptide 5.21E-01 uM
  Human alpha thrombin inhibition, slope normalized to DMSO: 99.3 and 95.3 and 96.7
[7]; peptide 6.36E-05 uM
  Human alpha thrombin inhibition, slope normalized to DMSO: 99.5 and 97.8 and 101.1
[7]; peptide 6.51E-02 uM
  Human alpha thrombin inhibition, slope normalized to DMSO: 101.0 and 91.1 and 103.2
[7]; peptide 6.67E+01 uM
  Human alpha thrombin inhibition, slope normalized to DMSO: 19.9 and 15.0 and 20.8
[7]; peptide 8.14E-03 uM
  Human alpha thrombin inhibition, slope normalized to DMSO: 100.5 and 116.6 and 101.1
[7]; peptide 8.33E+00 uM
  Human alpha thrombin inhibition, slope normalized to DMSO: 63.9 and 57.2 and 56.3

## CC(C)[C@@H]1NC(=O)[C@@H](NC(=O)c2ccc(Cl)s2)CNC(=O)CCSCc2cccc(n2)CSCCNC1=O [compound 19]
[1]; [8]
  Rat alpha thrombin inhibition, slope normalized to DMSO: 43.4 and 70.6
[1]; peptide 1.67E+01 uM
  Rat alpha thrombin inhibition, slope normalized to DMSO: 56.7 and 58.6
[1]; peptide 2.08E+00 uM
  Rat alpha thrombin inhibition, slope normalized to DMSO: 84.9 and 85.4 and 90.4
[1]; peptide 3.33E+01 uM
  Rat alpha thrombin inhibition, slope normalized to DMSO: 53.0 and 50.7 and 58.4
[1]; peptide 4.17E+00 uM
  Rat alpha thrombin inhibition, slope normalized to DMSO: 73.8 and 75.0 and 69.4
[1]; peptide 6.67E+01 uM
  Rat alpha thrombin inhibition, slope normalized to DMSO: 39.7 and 48.9 and 63.6
[1]; peptide 8.33E+00 uM
  Rat alpha thrombin inhibition, slope normalized to DMSO: 59.4 and 61.3 and 72.8
[2]
  SGF stability, Residual peptide Average: 94.69
  SGF stability, Residual peptide: 92.56 and 99.47 and 92.05
  remaining at 8 h: 95 ± 4%
[3]; [9]
  microsomal CLint: 13.1 µL/min/mg
[3]; [10]
  microsomal CLint: 42.3 µL/min/mg
[3]; [11]
  microsomal CLint: 68.3 µL/min/mg
[3]; [12]
  half-life: 32.8 min
[3]; [13]
  half-life: 20.3 min
[3]; [14]
  half-life: 53 ± 38 min
[3]; [15]
  microsomal CLint: 41 ± 23 µL/min/mg
[4]
  remaining at 8 h: 62 ± 15%
[5]
  SIF stability, Residual peptide Average: 62.00
[5]; single replicates R1-R3
  SIF stability, Residual peptide: 68.18 and 45.06 and 72.76
[6]
  PAMPA permeability: % permeability: 5.7 ± 1.3%
  Papp at 50 μM: 0.38 ×10⁻⁶ cm/s
  Permeability% Average: 5.7%
  Permeability% R1: 7.10%
  Permeability% R3: 4.56%
[7]; peptide 1.02E-03 uM
  Human alpha thrombin inhibition, slope normalized to DMSO: 98.0 and 91.0 and 96.2
[7]; peptide 1.04E+00 uM
  Human alpha thrombin inhibition, slope normalized to DMSO: 90.3 and 89.1 and 92.4
[7]; peptide 1.27E-04 uM
  Human alpha thrombin inhibition, slope normalized to DMSO: 96.9 and 100.1 and 95.3
[7]; peptide 1.30E-01 uM
  Human alpha thrombin inhibition, slope normalized to DMSO: 95.8 and 125.1 and 96.3
[7]; [8]
  Human alpha thrombin inhibition, slope normalized to DMSO: 74.4 and 73.1 and 82.6
[7]; peptide 1.63E-02 uM
  Human alpha thrombin inhibition, slope normalized to DMSO: 97.3 and 90.7 and 96.5
[7]; peptide 1.67E+01 uM
  Human alpha thrombin inhibition, slope normalized to DMSO: 83.1 and 82.1 and 94.4
[7]; peptide 2.03E-03 uM
  Human alpha thrombin inhibition, slope normalized to DMSO: 96.1 and 96.3 and 98.7
[7]; peptide 2.08E+00 uM
  Human alpha thrombin inhibition, slope normalized to DMSO: 89.8 and 84.9 and 90.4
[7]; peptide 2.54E-04 uM
  Human alpha thrombin inhibition, slope normalized to DMSO: 98.3 and 94.9 and 77.9
[7]; peptide 2.60E-01 uM
  Human alpha thrombin inhibition, slope normalized to DMSO: 93.9 and 90.6 and 94.3
[7]; peptide 3.18E-05 uM
  Human alpha thrombin inhibition, slope normalized to DMSO: 98.5 and 92.5 and 100.2
[7]; peptide 3.26E-02 uM
  Human alpha thrombin inhibition, slope normalized to DMSO: 95.9 and 95.8 and 99.6
[7]; peptide 3.33E+01 uM
  Human alpha thrombin inhibition, slope normalized to DMSO: 78.3 and 75.1 and 78.9
[7]; peptide 4.07E-03 uM
  Human alpha thrombin inhibition, slope normalized to DMSO: 94.7 and 93.4 and 96.1
[7]; peptide 4.17E+00 uM
  Human alpha thrombin inhibition, slope normalized to DMSO: 83.3 and 83.5 and 89.8
[7]; peptide 5.09E-04 uM
  Human alpha thrombin inhibition, slope normalized to DMSO: 93.5 and 91.5 and 93.7
[7]; peptide 5.21E-01 uM
  Human alpha thrombin inhibition, slope normalized to DMSO: 92.8 and 90.2 and 92.1
[7]; peptide 6.36E-05 uM
  Human alpha thrombin inhibition, slope normalized to DMSO: 97.2 and 93.5 and 90.4
[7]; peptide 6.51E-02 uM
  Human alpha thrombin inhibition, slope normalized to DMSO: 99.6 and 94.9 and 95.6
[7]; peptide 6.67E+01 uM
  Human alpha thrombin inhibition, slope normalized to DMSO: 77.2 and 75.7 and 77.5
[7]; peptide 8.14E-03 uM
  Human alpha thrombin inhibition, slope normalized to DMSO: 97.4 and 94.0 and 99.7
[7]; peptide 8.33E+00 uM
  Human alpha thrombin inhibition, slope normalized to DMSO: 84.1 and 83.5 and 81.2
